Experimental data reported in patent publication US20240092761A1, “QUINAZOLINE COMPOUNDS AND METHODS OF USE” (IAMBIC THERAPEUTICS, INC., priority 2022, published 2024).

Tests used:
MCF-7 cells = test: Cell Growth Inhibition, MCF-7 (CellTiterGlo, 6 days); format: cell-based; conditions: Homo sapiens, MCF7, 144 h; MCF-7, 6-day treatment, CellTiterGlo 2.0
In short: (§1)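 MCF-7 and OVCAR-3 cells (RPMI, 10% FBS) were seeded at 500 cells/well onto compound, typically 10–10,000 nM in half-log dilutions. Growth proceeded 6 days at 37 °C, then CellTiterGlo luminescence was read. % inhibition was taken versus control, and IC50 came from a four-parameter variable-slope fit.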

OVCAR-3 cells = test: Cell Growth Inhibition, OVCAR-3 (CellTiterGlo, 6 days); format: cell-based; conditions: Homo sapiens, 144 h; OVCAR-3, 6-day treatment, CellTiterGlo 2.0
In short: as §1

CDK6/Cyclin D3 = CDK6/Cyclin D3 (Homo sapiens (Human), UniProt Q00534); test: CDK6/Cyclin D3 ADP-Glo Kinase Assay; format: biochemical; conditions: 100 uM ATP, read-out: CDK6/ CyclinD3 IC50
In short: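 Recombinant human CDK6/Cyclin D3 pre-incubated 30 min with inhibitor at room temperature, then reaction started with ATP/substrate and run 90 min at room temperature. ADP formed detected by ADP-Glo luminescence; IC50 from a 4-parameter fit of fractional velocity versus inhibitor concentration.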

CDK4/Cyclin D1 = CDK4/Cyclin D1 (Homo sapiens (Human), UniProt P11802); test: CDK4/Cyclin D1 CHEF Assay (AQT0258 peptide); format: biochemical; conditions: 200 uM ATP, read-out: CDK4/ CyclinD1 AQT IC50
In short: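 CDK4/Cyclin D1 (2.5 nM) phosphorylating 10 uM Sox-labelled peptide AQT0258 with 200 uM ATP (Km 195.2 uM), 10 mM MgCl2, 2% DMSO, 54 mM HEPES pH 7.5. Enzyme and inhibitor pre-incubated 30 min, reaction 3 hrs at 22° C.; CHEF fluorescence (ex 360/em 485 nm), IC50 from fractional velocity, 4-parameter fit.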

[1] = target: CDK2/Cyclin E1 full length (Homo sapiens (Human), UniProt P24941); test: CDK2/Cyclin E1 Full Length ADP-Glo Kinase Assay; format: biochemical; conditions: 20 uM ATP, read-out: CDK2/ CyclinE1 IC50
In short: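 Full-length human CDK2/Cyclin E1 (0.328 nM) pre-incubated 30 min with inhibitor at RT, then reacted 90 min at RT with 20 uM ATP (Km 64.78 uM) and 0.75 uM substrate in pH 7.5 HEPES, 2% DMSO. ADP measured by ADP-Glo luminescence; IC50 from 4-parameter fit of fractional velocity.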

CDK1/Cyclin B1 = CDK1/Cyclin B1 (Homo sapiens (Human), UniProt P06493); test: CDK1/Cyclin B1 ADP-Glo Kinase Assay; format: biochemical; conditions: 80 uM ATP
In short: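 CDK1/cyclin B1 (4.917 nM) preincubated 30 min with inhibitor (2% DMSO), then 80 µM ATP (Km 78.6 µM) and 0.75 µM substrate added; 90 min, room temperature, pH 7.5. ADP measured by ADP-Glo luminescence; IC50 from 4-parameter fit.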

Sequence of CDK6/Cyclin D3 (Q00534 whole entry): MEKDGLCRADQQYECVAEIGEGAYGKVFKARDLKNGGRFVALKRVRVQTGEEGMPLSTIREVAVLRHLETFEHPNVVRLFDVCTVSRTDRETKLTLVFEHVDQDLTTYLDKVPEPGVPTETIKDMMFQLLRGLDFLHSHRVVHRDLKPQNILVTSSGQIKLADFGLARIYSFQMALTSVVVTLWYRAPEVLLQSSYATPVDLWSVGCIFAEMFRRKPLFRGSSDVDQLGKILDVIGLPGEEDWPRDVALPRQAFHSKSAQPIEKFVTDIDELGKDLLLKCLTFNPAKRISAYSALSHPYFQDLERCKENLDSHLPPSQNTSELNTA
Sequence of CDK6/Cyclin D3 (P30281 whole entry partner): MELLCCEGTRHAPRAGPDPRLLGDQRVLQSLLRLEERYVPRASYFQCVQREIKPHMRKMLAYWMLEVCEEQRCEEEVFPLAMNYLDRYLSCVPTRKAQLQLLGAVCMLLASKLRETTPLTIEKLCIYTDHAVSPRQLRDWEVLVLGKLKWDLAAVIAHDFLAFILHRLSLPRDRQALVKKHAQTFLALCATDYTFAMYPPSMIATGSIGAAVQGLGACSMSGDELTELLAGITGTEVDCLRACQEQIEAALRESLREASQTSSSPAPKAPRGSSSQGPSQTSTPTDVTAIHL
Sequence of CDK1/Cyclin B1 (P06493 whole entry): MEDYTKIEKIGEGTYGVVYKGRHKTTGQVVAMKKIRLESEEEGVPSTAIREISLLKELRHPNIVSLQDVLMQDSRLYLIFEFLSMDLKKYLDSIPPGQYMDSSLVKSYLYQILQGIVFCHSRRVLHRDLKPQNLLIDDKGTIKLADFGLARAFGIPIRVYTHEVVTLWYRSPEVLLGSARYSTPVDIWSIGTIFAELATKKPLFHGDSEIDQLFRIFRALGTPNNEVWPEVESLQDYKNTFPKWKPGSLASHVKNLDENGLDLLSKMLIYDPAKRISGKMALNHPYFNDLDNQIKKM
Sequence of CDK1/Cyclin B1 (P14635 whole entry partner): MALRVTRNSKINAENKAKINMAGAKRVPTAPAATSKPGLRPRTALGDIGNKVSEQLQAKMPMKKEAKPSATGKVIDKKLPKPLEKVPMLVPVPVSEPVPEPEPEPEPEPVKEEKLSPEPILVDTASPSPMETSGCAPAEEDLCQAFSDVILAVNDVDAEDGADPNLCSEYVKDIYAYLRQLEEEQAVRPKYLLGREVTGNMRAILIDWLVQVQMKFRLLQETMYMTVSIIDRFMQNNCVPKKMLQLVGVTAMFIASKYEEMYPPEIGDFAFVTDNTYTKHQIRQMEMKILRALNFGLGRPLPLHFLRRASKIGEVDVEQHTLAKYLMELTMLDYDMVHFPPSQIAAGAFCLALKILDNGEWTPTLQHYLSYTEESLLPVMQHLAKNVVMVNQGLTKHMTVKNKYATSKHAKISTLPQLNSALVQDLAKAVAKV
Sequence of CDK4/Cyclin D1 (P11802 whole entry): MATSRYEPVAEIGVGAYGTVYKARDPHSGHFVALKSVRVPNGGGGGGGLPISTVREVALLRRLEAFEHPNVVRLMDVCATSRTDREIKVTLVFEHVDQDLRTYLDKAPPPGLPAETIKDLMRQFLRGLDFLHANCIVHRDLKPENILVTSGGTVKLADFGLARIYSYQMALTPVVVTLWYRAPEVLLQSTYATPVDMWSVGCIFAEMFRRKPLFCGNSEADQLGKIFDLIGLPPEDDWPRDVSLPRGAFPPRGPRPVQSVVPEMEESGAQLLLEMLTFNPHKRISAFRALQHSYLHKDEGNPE
Sequence of CDK4/Cyclin D1 (P24385 whole entry partner): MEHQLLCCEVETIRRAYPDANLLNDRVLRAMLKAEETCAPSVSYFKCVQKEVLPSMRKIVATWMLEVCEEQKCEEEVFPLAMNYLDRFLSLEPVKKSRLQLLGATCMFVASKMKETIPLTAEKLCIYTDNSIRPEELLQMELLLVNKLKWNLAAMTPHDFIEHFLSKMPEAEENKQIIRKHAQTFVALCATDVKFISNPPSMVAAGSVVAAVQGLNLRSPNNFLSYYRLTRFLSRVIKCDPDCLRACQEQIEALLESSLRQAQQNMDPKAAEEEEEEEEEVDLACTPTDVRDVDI

| Structure (SMILES) | IC50 (MCF-7 cells) | IC50 (OVCAR-3 cells) | IC50 (CDK6/Cyclin D3) | IC50 (CDK4/Cyclin D1) | IC50 [1] | IC50 (CDK1/Cyclin B1) |
| --- | --- | --- | --- | --- | --- | --- |
| CC1(CS(=O)(=O)N2CCC(Nc3ncc4cc(C(F)F)cc(N5CC6(CCNC6)C5)c4n3)CC2)CC1 [Example 95, 6-(difluoromethyl)-N-(1-(((1-methylcyclopropyl)methyl)sulfonyl)piperidin-4-yl)-8-(2,6-diazaspiro[3.4]octan-2-yl)quinazolin-2-amine] | 0.5 to 2 µM | 0.5 to 2 µM | < 0.2 µM | < 0.2 µM | < 0.2 µM | < 0.2 µM |
| CC1(CCS(=O)(=O)N2CCC(Nc3ncc4cc(C(F)F)cc(N5CC6(CCNC6)C5)c4n3)CC2)CC1 [Example 96, 6-(difluoromethyl)-N-(1-((2-(1-methylcyclopropyl)ethyl)sulfonyl)piperidin-4-yl)-8-(2,6-diazaspiro[3.4]octan-2-yl)quinazolin-2-amine] | 0.5 to 2 µM | 0.5 to 2 µM | < 0.2 µM | < 0.2 µM | < 0.2 µM | < 0.2 µM |
| O=S(=O)(c1ccc(C(F)(F)F)nc1)N1CCC(Nc2ncc3cc(C(F)F)cc(N4CC5(CCNC5)C4)c3n2)CC1 [Example 97, 6-(difluoromethyl)-8-(2,6-diazaspiro[3.4]octan-2-yl)-N-(1-((6-(trifluoromethyl)pyridin-3-yl)sulfonyl)piperidin-4-yl)quinazolin-2-amine] | 0.2 to 0.5 µM | < 0.2 µM | < 0.2 µM | < 0.2 µM | < 0.2 µM | < 0.2 µM |
| O=S(=O)(C1CC1)N1CCC(Nc2ncc3cc(C(F)F)cc(N4CC5(CNCCO5)C4)c3n2)CC1 [Example 98, N-(1-(cyclopropylsulfonyl)piperidin-4-yl)-6-(difluoromethyl)-8-(5-oxa-2,8-diazaspiro[3.5]nonan-2-yl)quinazolin-2-amine] | 0.2 to 0.5 µM | 0.5 to 2 µM | < 0.2 µM | < 0.2 µM | < 0.2 µM | < 0.2 µM |
| CS(=O)(=O)N1CCC(Nc2ncc3cccc(C4CC5(CCNC5)C4)c3n2)CC1 (stereo not drawn) [Example 99, N-(1-(methylsulfonyl)piperidin-4-yl)-8-(6-azaspiro[3.4]octan-2-yl)quinazolin-2-amine] | 0.5 to 2 µM | 0.2 to 0.5 µM | < 0.2 µM | < 0.2 µM | < 0.2 µM | < 0.2 µM |
| CS(=O)(=O)N1CCC(Nc2ncc3cc(C(F)F)cc(C4CC5(CCN(CC(F)F)C5)C4)c3n2)CC1 (stereo not drawn) [Example 100, 8-(6-(2,2-difluoroethyl)-6-azaspiro[3.4]octan-2-yl)-6-(difluoromethyl)-N-(1-(methylsulfonyl)piperidin-4-yl)quinazolin-2-amine] | 0.2 to 0.5 µM | 0.5 to 2 µM | < 0.2 µM | < 0.2 µM | < 0.2 µM | < 0.2 µM |
| CS(=O)(=O)N1CCC(Nc2ncc3cc(C(F)F)cc(C4CC5(CCN(CCC(F)(F)F)C5)C4)c3n2)CC1 (stereo not drawn) [Example 101, 6-(difluoromethyl)-N-(1-(methylsulfonyl)piperidin-4-yl)-8-(6-(3,3,3-trifluoropropyl)-6-azaspiro[3.4]octan-2-yl)quinazolin-2-amine] | 0.2 to 0.5 µM | 0.5 to 2 µM | < 0.2 µM | < 0.2 µM | < 0.2 µM | < 0.2 µM |
| CS(=O)(=O)N1CCC(Nc2ncc3cc(C(F)F)cc(C4CC5(CCN(C6COC6)C5)C4)c3n2)CC1 (stereo not drawn) [Example 102, 6-(difluoromethyl)-N-(1-(methylsulfonyl)piperidin-4-yl)-8-(6-(oxetan-3-yl)-6-azaspiro[3.4]octan-2-yl)quinazolin-2-amine] | 0.2 to 0.5 µM | 0.2 to 0.5 µM | < 0.2 µM | < 0.2 µM | < 0.2 µM | < 0.2 µM |
| CC(C)(F)CN1CCC2(CC(c3cc(C(F)F)cc4cnc(NC5CCN(S(C)(=O)=O)CC5)nc34)C2)C1 (stereo not drawn) [Example 103, 6-(difluoromethyl)-8-(6-(2-fluoro-2-methylpropyl)-6-azaspiro[3.4]octan-2-yl)-N-(1-(methylsulfonyl)piperidin-4-yl)quinazolin-2-amine] | 0.2 to 0.5 µM | 0.5 to 2 µM | < 0.2 µM | < 0.2 µM | < 0.2 µM | < 0.2 µM |
